The target in test [1] is Kelch domain of human KEAP1 (321-624 aa) (Homo sapiens (Human), UniProt Q14145). As to the kind of experiment: KEAP1 KELCH ThermoFluor binding assay.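 Further: Ligand-induced melting temperature shift of E. coli-expressed KEAP1 Kelch protein, Kd estimated from concentration-response curves of ΔTm.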 As to conditions: KEAP Kelch […], 1,8-ANS, pH 7.0, average of results obtained, read-out: Tf Kd.
Excerpt: The shift in the melting point described as a ΔTm is proportional to the concentration and affinity of the ligand. The compound potency may be compared as a rank order of either ΔTm values at a single compound concentration or in terms of KD values, estimated from concentration response curves.
The protein was expressed in E. coli with 6His tag that was cleaved prior to receipt for use.
Protein (KEAP Kelch) and compound solutions were dispensed into black 384-well polypropylene PCR microplates (Abgene) and overlayed with silicone oil (1 μL, Fluka, type DC 200) to prevent evaporation.
The subject of test [2] is Glo-Response ARE-luc2P HEK293 cell line. Description: ARE luciferase reporter cell-based assay.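 Further: luciferase signal tracks Nrf2 activation of the ARE once compounds disrupt KEAP1-Nrf2 binding, read with One-Glo reagent, DMSO serving as low control.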 As to conditions: Homo sapiens, HEK293, 24 h, average of results obtained. A general note: A reporter such as luciferase makes a cellular process visible.

Sequence of Kelch domain of human KEAP1 (321-624 aa) (Q14145 321-624): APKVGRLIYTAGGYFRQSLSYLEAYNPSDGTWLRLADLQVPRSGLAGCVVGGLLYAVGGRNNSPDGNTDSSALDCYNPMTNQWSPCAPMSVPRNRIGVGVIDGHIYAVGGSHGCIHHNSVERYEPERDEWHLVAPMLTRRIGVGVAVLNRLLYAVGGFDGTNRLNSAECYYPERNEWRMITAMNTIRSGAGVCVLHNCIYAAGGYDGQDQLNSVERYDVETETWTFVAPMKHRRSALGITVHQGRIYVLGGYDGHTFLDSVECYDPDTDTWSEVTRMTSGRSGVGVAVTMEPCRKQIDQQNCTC

With `Cc1ccc([C@H](CC(=O)O)c2ccc3c(nnn3C3CC3)c2C)cc1CN1CC2(COC2)Oc2ccccc2S1(=O)=O` (single isomer, unassigned) [Example 215, (*S)-3-(1-Cyclopropyl-4-methyl-1H-benzo[d][1,2,3]triazol-5-yl)-3-(3-((1,1-dioxidospiro[benzo[b][1,4,5]oxathiazepine-4,3′-oxetan]-2(3H)-yl)methyl)-4-methylphenyl)propanoic Acid], the Kd in test [1] was below 1 nM. The EC50 in test [2] came out at 3.3 nM.
In the same order, the values of `Cc1ccc([C@@H](CC(=O)O)c2ccc3c(nnn3C3CC3)c2C)cc1CN1CC2(COC2)Oc2ccccc2S1(=O)=O` (single isomer, unassigned) [Example 216, (*R)-3-(1-Cyclopropyl-4-methyl-1H-benzo[d][1,2,3]triazol-5-yl)-3-(3-((1,1-dioxidospiro[benzo[b][1,4,5]oxathiazepine-4,3′-oxetan]-2(3H)-yl)methyl)-4-methylphenyl)propanoic Acid] are 2 nM and 38 nM.
With `Cc1ccc([C@@H](CC(=O)O)c2ccc3c(nnn3C3CC3)c2C)cc1CN1C[C@]2(C)CCCN2c2ncccc2S1(=O)=O` (single isomer, unassigned) [Example 220, (*R)-3-(1-Cyclopropyl-4-methyl-1H-benzo[d][1,2,3]triazol-5-yl)-3-(4-methyl-3-(((*S)-7a-methyl-5,5-dioxido-7a,8,9,10-tetrahydropyrido[2,3-f]pyrrolo[2,1-d][1,2,5]thiadiazepin-6(7H)-yl)methyl)phenyl)propanoic Acid], the Kd in test [1] is below 1 nM. This compound had an EC50 in test [2] of 61 nM.
In the same order, the values of `Cc1ccc([C@H](CC(=O)O)c2ccc3c(nnn3C3CC3)c2C)cc1CN1C[C@@]2(C)CCCN2c2ncccc2S1(=O)=O` (single isomer, unassigned) [Example 222, (*S)-3-(1-Cyclopropyl-4-methyl-1H-benzo[d][1,2,3]triazol-5-yl)-3-(4-methyl-3-(((*R)-7a-methyl-5,5-dioxido-7a,8,9,10-tetrahydropyrido[2,3-f]pyrrolo[2,1-d][1,2,5]thiadiazepin-6(7H)-yl)methyl)phenyl)propanoic Acid] are 14 nM and 350 nM.
In the same order, the values of `Cc1ccc([C@@H](CC(=O)O)c2ccc3c(nnn3C3CC3)c2C)cc1CN1C[C@@]2(C)CCCN2c2ncccc2S1(=O)=O` (single isomer, unassigned) [Example 223, (*R)-3-(1-Cyclopropyl-4-methyl-1H-benzo[d][1,2,3]triazol-5-yl)-3-(4-methyl-3-(((*R)-7a-methyl-5,5-dioxido-7a,8,9,10-tetrahydropyrido[2,3-f]pyrrolo[2,1-d][1,2,5]thiadiazepin-6(7H)-yl)methyl)phenyl)propanoic Acid] are 190 nM and 5460 nM.
In the same order, the values of `Cc1ccc([C@@H](CC(=O)O)c2ccc3c(nnn3C3CC3)c2C)cc1CN1CC2(CC2)N(C)c2ncccc2S1(=O)=O` (single isomer, unassigned) [Example 226, (*R)-3-(1-Cyclopropyl-4-methyl-1H-benzo[d][1,2,3]triazol-5-yl)-3-(4-methyl-3-((5′-methyl-1′,1′-dioxido-5′H-spiro[cyclopropane-1,4′-pyrido[2,3-f][1,2,5]thiadiazepin]-2′(3′H)-yl)methyl)phenyl)propanoic Acid] are 6 nM and 160 nM.
Take `Cc1cnc2c(c1)S(=O)(=O)N(Cc1cc([C@H](c3ccc4c(nnn4C4CC4)c3C)C(C)(C)C(=O)O)cnc1C)CC1(CCOCC1)O2` (single isomer, unassigned) [Example 228, (*S)-3-(1-Cyclopropyl-4-methyl-1H-benzo[d][1,2,3]triazol-5-yl)-2,2-dimethyl-3-(6-methyl-5-((8′-methyl-1′,1′-dioxido-2,3,5,6-tetrahydrospiro[pyran-4,4′-pyrido[2,3-b][1,4,5]oxathiazepin]-2′(3′H)-yl)methyl)pyridin-3-yl)propanoic Acid]: the Kd in test [1] is below 1 nM. The compound also registered an EC50 in test [2] of 10 nM.

By Kd is commonly meant the constant that tells how readily two partners part at equilibrium. For orientation: EC50 means the concentration that produces a half-maximal response. A high value points to a less potent agent.

The record behind these values is US10947252B2, “Inhibitors of KEAP1-Nrf2 protein-protein interaction” (Janssen Pharmaceutica NV, priority 2018, dated 2021).
